Experimental data as given in patent publication US7557212B2, “Tricyclic derivatives as LTD4 antagonists” (Laboratorios Almirall, S.A., priority 2002, dated 2009).
Read-outs that look alike come from different tables or passages of the source.

Key:
CysLT1 = biological target: T1, CysLT1 (Cavia porcellus, UniProt Q2NNR5); experiment: CysLT1/LTD4 radioligand binding assay ([3H]LTD4, guinea-pig lung membrane preparation); details: 300 pM [3H]LTD4, guinea-pig lung membranes, 30 minutes at room temperature
T1 construct: The assay mixture also contained 200 μg of lung membrane protein/plate well; from tissue; host or cells: guinea-pig lung (primarily parenchyma) membrane preparation
T1 sequence (Q2NNR5 1-340): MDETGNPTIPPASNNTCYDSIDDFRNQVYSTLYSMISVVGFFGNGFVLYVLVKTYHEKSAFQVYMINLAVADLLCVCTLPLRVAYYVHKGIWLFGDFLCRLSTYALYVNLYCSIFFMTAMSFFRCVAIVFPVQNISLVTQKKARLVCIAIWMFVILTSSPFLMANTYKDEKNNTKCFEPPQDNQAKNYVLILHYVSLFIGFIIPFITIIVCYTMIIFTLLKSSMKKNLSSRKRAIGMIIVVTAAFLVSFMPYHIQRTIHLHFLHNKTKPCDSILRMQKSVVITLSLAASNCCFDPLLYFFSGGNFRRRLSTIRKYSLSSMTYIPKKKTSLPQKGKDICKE
Method: CysLT1/LTD4 Binding Protocol (Guinea-Pig Lung Membrane Preparation)
Guinea pigs were sacrificed and lung tissues removed. Connective tissue, trachea, large blood vessels and major airways were removed and the remaining tissue, primarily parenchyma, was homogenised in 20 volumes of 10 mM TRIS pH 7.4 containing 0.25M sucrose, 0.25 mM phenylmethylsulfonyl fluoride, 155 μg/ml benzenecarboximide, 5 μg/ml soybean trypsin inhibitor and 100 μg/ml bacitracin (Work Buffer), in a ULTRA-TURRAX T25 at 13500 rpm. The homogenate was centrifuged at 1000×g for 10 minutes at 4° C. The resulting supernatant was filtered through a sterile cloth and further centrifuged for 15 minutes at 40000×g at 4° C. The pellet obtained was resuspended in 10 volumes of Work Buffer, homogenised using a Potter (1100 rpm) and subjected to a final centrifugation step for 30 minutes at 40000×g at 4° C. This membrane pellet was finally resuspended in 10 volumes of 10 mM TRIS and 10 mM PIPES pH 7.4, and homogenised using a Potter (1100 rpm). Protein concentration was determined by the BRADFORD method using the Bio-Rad Protein Assay kit with BSA as standard. Protein aliquots were kept frozen at −80° C.
Radioligand Binding Assay
[^3H]LTD4 (136.9 Ci/mmol) was obtained from NEN.
The assays were performed in a final volume of 250 μl of 10 mM PIPES pH 7.5 containing 10 mM CaCl2, 10 mM MgCl2, 50 mM NaCl, 2 mM L-Cysteine, 2 mM Glycine and 300 pM [^3H]LTD4. The assay mixture also contained 200 μg of lung membrane protein/plate well. Non-specific binding was determined in the presence of zafirlukast 10 μM.
The assays were performed directly on Millipore Multiscreen GF/B plates, presoaked with 200 μl/well of assay buffer at room temperature. Incubations were conducted for 30 minutes at room temperature with continuous shaking. Separation of bound and free [^3H]LTD4 was done by filtration through the plates that were then washed three times with 175 μl/wash of 10 mM TRIS containing 100 mM NaCl at 4° C. The plates were dried and counted in a TRILUX Microbeta Liquid Scintillation Counter of Wallac.

[1] = tested on: LTD4-induced airway microvascular leakage; experiment: LTD4-induced microvascular permeability in guinea-pigs (Evans blue extravasation in trachea); format: in vivo, guinea pig; details: oral gavage 4 hours before, LTD4 1 μg/kg i.v., male Dunkin-Hartley guinea pigs
Method: LTD4-Induced Microvascular Permeability in Guinea-Pigs
Male Dunkin-Hartey guinea pigs (450-500 g) fasted for 18 hours were administered the test compounds by oral gavage 4 hours before being anesthetized with urethane (15%, i.p. 10 ml/kg). The left jugular vein was canulated under anaesthesia. Five minutes afterwards, Evans blue dye (40 mg/Kg) was injected intravenously. After five more minutes, LTD4 was administered (1 μg/kg, i.v.) to the animals in order to induce airway microvascular leakage. After yet another period of 5 minutes, animals were exsanguinated by cutting the right atria and the vascular bed was rinsed by perfusing 50 ml of saline solution through the left ventricle at a pressure of 150 cmH2O. Then the trachea was excised and incubated in formamide for 20 hours at 55° C. to extract the Evans blue dye from the tissue. Microvascular permeability was determined by light spectrophotometry at 620 nm of the extravasated dye.

[2] = Cavia porcellus, read-out: ED50

SMILES | IC50 (CysLT1) [nM] | ED50 [1, 2] [mg/kg] | ED50 [1] [mg/kg]
O=C(O)CCSC1c2cc(OCc3ccc4cc(F)c(F)cc4n3)ccc2OCc2ncccc21 (single isomer, unassigned; (+)) [Example 34, (+)-3-[7-(6,7-Difluoro-quinolin-2-ylmethoxy)-5,11-dihydro-10-oxa-1-aza-dibenzo[a,d]cyclohepten-5-ylsulfanyl]-propionic Acid] | 1.2 | 0.018 | 
O=C(O)CCSC1c2cc(OCc3ccc4cc(F)c(Cl)cc4n3)ccc2CCc2ncccc21 (single isomer, unassigned; (+)) [Example 43, (+) 3-[7-(7-Chloro-6-fluoro-quinolin-2-ylmethoxy)-10,11-dihydro-5H-benzo[4,5]cyclohepta[1,2-b]pyridin-5-ylsulfanyl]-propionic Acid] | 3.4 |  | 
O=C(O)CCSC1c2cc(OCc3ccc4cc(F)c(F)cc4n3)ccc2OCc2ncccc21 (single isomer, unassigned; (-)) [Example 35, (−)-3-[7-(6,7-Difluoro-quinolin-2-ylmethoxy)-5,11-dihydro-10-oxa-1-aza-dibenzo[a,d]cyclohepten-5-ylsulfanyl]-propionic Acid] | 0.35 |  | 0.009
O=C(O)CCSC1c2ccccc2COc2ccc(OCc3ccc4cc(F)c(Cl)cc4n3)cc21 (stereo not drawn) [Compound A, reference compound] | 0.51 |  | 0.010
CC(C)(O)c1ccccc1CC[C@@H](SCC1(CC(=O)O)CC1)c1cccc(/C=C/c2ccc3ccc(Cl)cc3n2)c1 [Compound B, reference compound] |  | 0.008 | 
O=C(O)CCSC1c2cc(OCc3ccc4cc(F)c(F)cc4n3)ccc2OCc2ncccc21 (stereo not drawn) [Example 1, 3-{(7-[(6,7-difluoroquinolin-2-yl)methoxy]-5,11-dihydro[1]benzoxepino[3,4-b]pyridin-5-yl)thio}propanoic Acid] | 0.38 | 0.009 | 
O=C(O)CSC1c2cc(OCc3ccc4cc(F)c(Cl)cc4n3)ccc2OCc2ncccc21 (stereo not drawn) [Example 3, {(7-[(7-chloro,6-fluoro-quinolin-2-yl)methoxy]-5,11-dihydro[1]benzoxepino[3,4-b]pyrindin-5-yl)thio}acetic Acid] | 0.27 |  | 
O=C(O)CCSC1c2cc(OCc3ccc4cc(F)c(Cl)cc4n3)ccc2OCc2ncccc21 (stereo not drawn) [Example 4, 3-{(7-[(7-chloro,6-fluoro-quinolin-2-yl)methoxy]-5,11-dihydro[1]benzoxepino[3,4-b]pyrindin-5-yl)thio}propanoic Acid] | 0.28 | 0.03 | 
O=C(O)CC1(CSC2c3cc(OCc4ccc5cc(F)c(F)cc5n4)ccc3OCc3ncccc32)CC1 (stereo not drawn) [Example 7, 1-{[(7-[(6,7-difluoroquinolin-2-yl)methoxy]-5,11-dihydro[1]benzoxepino[3,4-b]pyrindin-5-yl)thio]methyl}cyclopropyl Acetic Acid] | 0.14 | 0.013 | 
CC(C)(CSC1c2cc(OCc3ccc4cc(F)c(F)cc4n3)ccc2OCc2ncccc21)C(=O)O (stereo not drawn) [Example 8, 3-{(7-[(6,7-difluoroquinolin-2-yl)methoxy]-5,11-dihydro[1]benzoxepino[3,4-b]pyrindin-5-yl)thio}-2,2-dimethylpropanoic Acid] | 0.5 |  | 
CC(C)(CC(=O)O)SC1c2cc(OCc3ccc4cc(F)c(F)cc4n3)ccc2OCc2ncccc21 (stereo not drawn) [Example 9, 3-{(7-[(6,7-difluoroquinolin-2-yl)methoxy]-5,11-dihydro[1]benzoxepino[3,4-b]pyrindin-5-yl)thio}-3methylbutanoic Acid] | 0.59 | 0.018 | 
O=C(O)CC1(CSC2c3cc(/C=C/c4ccc5cc(F)c(F)cc5n4)ccc3OCc3ncccc32)CC1 (stereo not drawn) [Example 11, 1-{[(7-[(E)-2-(6,7-difluoroquinolin-2-yl)vinyl]-5,11-dihydro[1]benzoxepino[3,4-b]pyrindin-5-yl)thio]methyl}cyclopropyl Acetic] | 0.27 | 0.0013 | 
O=C(O)CSC1c2cc(/C=C/c3ccc4cc(F)c(F)cc4n3)ccc2OCc2ncccc21 (stereo not drawn) [Example 12, {(7-[(E)-2-(6,7-difluoroquinolin-2-yl)vinyl]-5,11-dihydro[1]benzoxepino[3,4-b]pyrindin-5-yl)thio}acetic Acid] | 0.35 |  | 
O=C(O)CC1(CSC2c3cc(OCc4ccc5cc(F)c(F)cc5n4)ccc3OCc3cccnc32)CC1 (stereo not drawn) [Example 18, 1-{[(9-[(6,7-difluoroquinolin-2-yl)methoxy]-5,11-dihydro[1]benzoxepino[4,3-b]pyrindin-11-yl)thio]methyl}cyclopropyl Acetic Acid] | 0.33 |  | 
O=C(O)CCSC1c2cc(OCc3ccc4cc(F)c(Cl)cc4n3)ccc2CCc2ncccc21 (stereo not drawn) [Example 23, 3-[7-(7-Chloro-6-fluoro-quinolin-2-ylmethoxy)-10,11-dihydro-5H-benzo[4,5]cyclohepta[1,2-b]pyridin-5-ylsulfanyl]-propionic Acid] | 0.34 | 0.002 | 
O=C(O)CCSC1c2cc(OCc3ccc4cc(F)c(F)cc4n3)ccc2CCc2ncccc21 (stereo not drawn) [Example 24, 3-[7-(6,7-difluoro-quinolin-2-ylmethoxy)-10,11-dihydro-5H-benzo[4,5]cyclohepta[1,2-b]pyridin-5-ylsulfanyl]-propionic Acid] | 0.6 | 0.01 | 
O=C(O)CCSC1c2ccncc2CCc2ccc(OCc3ccc4cc(F)c(F)cc4n3)cc21 (stereo not drawn) [Example 25, 3-[7-(6,7-Difluoro-quinolin-2-ylmethoxy)-10,11-dihydro-5H-benzo[4,5]cyclohepta[1,2-c]pyridin-5-ylsulfanyl]-propionic Acid] | 0.67 |  | 
O=C(O)CCSC1c2cc(CCc3ccc4cc(F)c(F)cc4n3)ccc2OCc2cccnc21 (stereo not drawn) [Example 28, 3-{7-[2-(6,7-Difluoro-quinolin-2-yl)-ethyl]-5,11-dihydro-10-oxa-4-aza-dibenzo[a,d]cyclohepten-5-ylsulfanyl}-propionic Acid] | 2 |  | 
O=C(O)CCSC1c2cc(OCc3ccc4cc(F)c(F)cc4n3)ccc2C=Cc2ncccc21 (stereo not drawn) [Example 33, 3-[7-(6,7-Difluoro-quinolin-2-ylmethoxy)-5H-benzo[4,5]cyclohepta[1,2-b]pyridin-5-ylsulfanyl]-propionic Acid] | 0.5 |  | 
O=C(O)CC1(CSC2c3cc(/C=C/c4ccc5cc(F)c(F)cc5n4)ccc3C=Cc3ncccc32)CC1 (stereo not drawn) [Example 40, (1-{7-[2-(6,7-Difluoro-quinolin-2-yl)-vinyl]-5H-benzo[4,5]cyclohepta[1,2-b]pyridin-5-ylsulfanylmethyl}-cyclopropyl) Acetic Acid] | 0.5 |  | 
